Test: xn = mol fraction of the nth substance listed
Details: 100 kPa, Liquid; for speed of sound: Sing-around technique in a fixed-path interferometer; for mass density: Vibrating tube method

CCOCCOCCOCC [diethylene glycol diethyl ether] + O
Details	mass density [kg/m3]	speed of sound [m/s]
283.15 K, x1 = 0.97	918.572	1305.3
283.15 K, x1 = 0.9742	918.371	1304.9
283.15 K, x1 = 0.9778	918.271	1303.9
283.15 K, x1 = 0.9836	917.783	1303.6
283.15 K, x1 = 0.9875	917.643	1304.4
283.15 K, x1 = 0.9911	917.567	1304.1
288.15 K, x1 = 0.97	913.742	1284.9
288.15 K, x1 = 0.9742	913.543	1284.6
288.15 K, x1 = 0.9778	913.443	1283.6
288.15 K, x1 = 0.9836	912.955	1283.3
288.15 K, x1 = 0.9875	912.82	1284
288.15 K, x1 = 0.9911	912.74	1284
293.15 K, x1 = 0.97	908.91	1264.8
293.15 K, x1 = 0.9742	908.705	1264.4
293.15 K, x1 = 0.9778	908.61	1263.6
293.15 K, x1 = 0.9836	908.126	1263.2
293.15 K, x1 = 0.9875	907.993	1263.9
293.15 K, x1 = 0.9911	907.914	1263.8
298.15 K, x1 = 0.97	904.074	1244.9
298.15 K, x1 = 0.9742	903.873	1244.6
298.15 K, x1 = 0.9778	903.775	1243.7
298.15 K, x1 = 0.9836	903.3	1243.4
298.15 K, x1 = 0.9875	903.166	1244.1
298.15 K, x1 = 0.9911	903.09	1244
303.15 K, x1 = 0.97	899.235	1225.2
303.15 K, x1 = 0.9742	899.035	1224.9
303.15 K, x1 = 0.9778	898.937	1224
303.15 K, x1 = 0.9836	898.467	1223.6
303.15 K, x1 = 0.9875	898.334	1224.4
303.15 K, x1 = 0.9911	898.256	1224.2
308.15 K, x1 = 0.97	894.389	1205.6
308.15 K, x1 = 0.9742	894.189	1205.3
308.15 K, x1 = 0.9778	894.092	1204.6
308.15 K, x1 = 0.9836	893.628	1204.1
308.15 K, x1 = 0.9875	893.496	1204.7
308.15 K, x1 = 0.9911	893.419	1204.6
313.15 K, x1 = 0.97	889.537	1186.4
313.15 K, x1 = 0.9742	889.339	1186
313.15 K, x1 = 0.9778	889.241	1185.3
313.15 K, x1 = 0.9836	888.783	1184.7
313.15 K, x1 = 0.9875	888.652	1184.7
313.15 K, x1 = 0.9911	888.577	1185.3
323.15 K, x1 = 0.97	879.812	1148.2
323.15 K, x1 = 0.9742	879.619	1147.7
323.15 K, x1 = 0.9778	879.518	1147.3
323.15 K, x1 = 0.9836	879.074	1146.7
323.15 K, x1 = 0.9875	878.945	1146.3
323.15 K, x1 = 0.9911	878.873	1146.2
333.15 K, x1 = 0.97	870.056	1111
333.15 K, x1 = 0.9742	869.867	1110.4
333.15 K, x1 = 0.9778	869.76	1110
333.15 K, x1 = 0.9836	869.332	1109.5
333.15 K, x1 = 0.9875	869.203	1109.1
333.15 K, x1 = 0.9911	869.134	1108.9
343.15 K, x1 = 0.97	860.264	1074.5
343.15 K, x1 = 0.9742	860.076	1074
343.15 K, x1 = 0.9778	859.966	1073.7
343.15 K, x1 = 0.9836	859.55	1073.1
343.15 K, x1 = 0.9875	859.411	1072.6
343.15 K, x1 = 0.9911	859.346	1072.7

OCCOCCO [diethylene glycol] + O
Details	mass density, x1 = 0.907 [kg/m3]	mass density, x1 = 0.9589 [kg/m3]	mass density, x1 = 0.9698 [kg/m3]	mass density, x1 = 0.99 [kg/m3]	mass density, x1 = 0.9901 [kg/m3]	speed of sound, x1 = 0.907 [m/s]	speed of sound, x1 = 0.9589 [m/s]	speed of sound, x1 = 0.9698 [m/s]	speed of sound, x1 = 0.99 [m/s]	speed of sound, x1 = 0.9901 [m/s]
283.15 K	1123.13	1123.27	1123.27	1123.33	1123.33	1620.3	1617.8	1617.4	1616.4	1616.5
288.15 K	1119.58	1119.71	1119.72	1119.77	1119.77	1608	1605.5	1605.2	1604.1	1604.2
293.15 K	1116.02	1116.15	1116.16	1116.21	1116.21	1595.9	1593.3	1593	1591.9	1592
298.15 K	1112.45	1112.59	1112.59	1112.65	1112.65	1583.8	1581	1580.8	1579.6	1579.8
303.15 K	1108.88	1109.02	1109.03	1109.08	1109.08	1571.7	1569	1568.6	1567.5	1567.4
308.15 K	1105.3	1105.43	1105.44	1105.5	1105.5	1559.6	1557	1556.6	1555.4	1555.4
313.15 K	1101.69	1101.83	1101.84	1101.9	1101.9	1547.5	1545	1544.6	1543.4	1543.3
323.15 K	1094.45	1094.6	1094.6	1094.67	1094.67	1523.4	1520.9	1520.5	1519.3	1519.2
333.15 K	1087.12	1087.28	1087.29	1087.36	1087.36	1499	1496.6	1496.2	1495.1	1494.9
343.15 K	1079.71	1079.88	1079.9	1079.97	1079.97	1474.6	1472.2	1471.8	1470.8	1470.5
